The values below come from US8158656B2, “2-indolinone derivatives as multi-target protein kinase inhibitors and histone deacetylase inhibitors” (Shenzhen Chipscreen Biosciences Ltd., priority 2008, dated 2012).

Common to all, as to type: cell-based
Experiment [1] has as its target T1, HDAC7 (Homo sapiens, UniProt Q8WUI4).
T1 construct: endogenous in cells; host or cells: HeLa
T1 sequence (Q8WUI4 1-952): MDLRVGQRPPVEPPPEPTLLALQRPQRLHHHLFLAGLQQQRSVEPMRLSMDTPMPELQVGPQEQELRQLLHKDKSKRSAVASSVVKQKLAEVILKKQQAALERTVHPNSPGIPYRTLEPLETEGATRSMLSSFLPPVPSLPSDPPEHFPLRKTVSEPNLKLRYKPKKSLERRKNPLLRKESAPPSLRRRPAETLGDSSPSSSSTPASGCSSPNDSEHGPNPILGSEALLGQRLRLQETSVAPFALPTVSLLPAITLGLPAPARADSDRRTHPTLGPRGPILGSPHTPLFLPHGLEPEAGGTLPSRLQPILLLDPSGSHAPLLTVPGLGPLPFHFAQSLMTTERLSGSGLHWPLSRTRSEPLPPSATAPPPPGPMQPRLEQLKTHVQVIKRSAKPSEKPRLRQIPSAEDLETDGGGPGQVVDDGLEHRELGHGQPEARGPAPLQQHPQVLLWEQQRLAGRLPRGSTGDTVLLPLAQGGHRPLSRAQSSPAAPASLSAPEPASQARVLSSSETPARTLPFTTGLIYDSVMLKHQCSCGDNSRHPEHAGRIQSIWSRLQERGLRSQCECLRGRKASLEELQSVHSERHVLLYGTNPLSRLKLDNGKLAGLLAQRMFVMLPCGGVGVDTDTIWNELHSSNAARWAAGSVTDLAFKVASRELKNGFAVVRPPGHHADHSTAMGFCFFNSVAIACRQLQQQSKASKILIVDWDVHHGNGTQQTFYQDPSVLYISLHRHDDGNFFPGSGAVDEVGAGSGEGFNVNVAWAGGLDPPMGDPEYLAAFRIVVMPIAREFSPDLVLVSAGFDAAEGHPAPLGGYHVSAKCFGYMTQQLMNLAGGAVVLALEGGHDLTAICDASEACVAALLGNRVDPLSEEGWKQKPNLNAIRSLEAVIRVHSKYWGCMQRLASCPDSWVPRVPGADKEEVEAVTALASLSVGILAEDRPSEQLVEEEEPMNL
Put plainly: Nur77 reporter assay in HeLa cells. Particulars: for HDAC7 (Nur77 reporter assay) % Max Resp of CS055 at 3 μM: relative to CS055 at 3 μM. The procedure: (§1) HDAC subtype selectivity inhibition assay of tested compounds was carried out by several reporter gene assays experiments. Briefly, HeLa cells were seeded in 96-well plates the day before transfection to give a confluence of 50-80%. Cells were transfected with one of reporter gene plasmid containing a promoter sequence or response element upstream of a luciferase gene construct using FuGene6 transfection reagent according to the manufacturer's instruction (Roche). The promoters or response elements including p21-promoter, gdf11-promoter, MEF-binding element (MEF2), Nur77-promoter were fused upstream to the luciferase gene reporter construct. For normalizing the transfection efficiency, a GFP expression plasmid was cotransfected. Cells were allowed to express protein for 24 hours followed by addition of individual compounds or the vehicle (DMSO). 24 hours later the cells were harvested, and the luciferase assay and GFP assay were performed using corresponding assay kits according to the manufacturer's instructions (Promega).
Background: A reporter such as luciferase makes a cellular process visible.

The subject of experiment [2] is HCT-8. Description: Tumor cell proliferation (MTS), HCT-8. As to conditions: Homo sapiens, HCT-8, 72 hours. The method, then: (§2) Measurement of in vivo cell proliferation:
(§3) Tumor cells were trypsinized and plated into 96-well plates at 3,000 per well and incubated in complete medium with 10% FBS for 24 hours. Compounds were added over a final concentration range of 100 μmol/L to 100 nmol/L in 0.1% DMSO and incubated for 72 hours in complete medium. The effects on proliferation were determined by addition of MTS reagent (Promega) according to the instruction, incubation for 2 hours at 37° C. in CO2 incubator, and record the absorbance at 490 nm using an ELISA plate reader.

The subject of experiment [3] is PDGFRβ NIH-3T3 cells. Put plainly: PDGF ligand-dependent cell proliferation. Particulars: Mus musculus, NIH3T3; NIH-3T3 expressing human PDGFRβ, PDGF BB 50 ng/ml, 72 hours, MTS. The method, then: Measurement of in vivo inhibition on receptor ligand-dependent cell proliferation: PDGF dependent cell proliferation:
NIH-3T3 mouse fibroblasts cell line engineered to stably express human PDGFRβ was constructed and used to evaluate PDGF dependent cell proliferation. PDGFRβ NIH-3T3 cells were plated into 96-well plates at 5,000 per well and incubated with serum-free medium for 24 hours. Compounds and PDGF BB (50 ng/ml) were added and incubated for 72 hours in serum-free medium. The effects on proliferation were determined by addition of MTS reagent (Promega) according to the instruction, incubation for 2 hours at 37° C. in CO2 incubator, and record the absorbance at 490 nm using an ELISA plate reader.

Experiment [4] has as its system HUVEC cells. Put plainly: VEGF ligand-dependent cell proliferation. Particulars: Homo sapiens, VEGF 165 50 ng/ml, 72 hours, MTS. The method, then:
VEGF dependent cell proliferation:
HUVEC cells were plated into 96-well plates at 6,000 per well and incubated with serum-free medium for 2 hours. Compounds and VEGF 165 (50 ng/ml) were added and incubated for 72 hours in serum-free medium. The effects on proliferation were determined by addition of MTS reagent (Promega) according to the instruction, incubation for 2 hours at 37° C. in CO2 incubator, and record the absorbance at 490 nm using an ELISA plate reader.

Experiment [5] concerns the target T2, HDAC3 (Homo sapiens, UniProt O15379).
T2 construct: endogenous in cells; host or cells: HeLa
Put plainly: GDF11 reporter assay in HeLa cells. Particulars: for HDAC3 (GDF11 reporter assay) % Max Resp of CS055 at 3 μM: relative to CS055 at 3 μM. The method, then: as §1

Experiment [6] relates to MDA-MB-231. Description: Tumor cell proliferation (MTS), MDA-MB-231. Particulars: Homo sapiens, MDA-MB-231, 72 hours. The method, then:
as §2, §3

Experiment [7] deals with HeLa. Description: Tumor cell proliferation (MTS), HeLa. Particulars: Homo sapiens, 72 hours. The procedure: as §2, §3
The test system of experiment [8] is Jurkat. Description: Tumor cell proliferation (MTS), Jurkat. As to conditions: Homo sapiens, 72 hours. The method, then:
as §2, §3

The test system of experiment [9] is Bel-7402. Description: Tumor cell proliferation (MTS), Bel-7402. As to conditions: Homo sapiens, Bel-7402, 72 hours. The method, then:
as §2, §3

T2 sequence (O15379 whole entry): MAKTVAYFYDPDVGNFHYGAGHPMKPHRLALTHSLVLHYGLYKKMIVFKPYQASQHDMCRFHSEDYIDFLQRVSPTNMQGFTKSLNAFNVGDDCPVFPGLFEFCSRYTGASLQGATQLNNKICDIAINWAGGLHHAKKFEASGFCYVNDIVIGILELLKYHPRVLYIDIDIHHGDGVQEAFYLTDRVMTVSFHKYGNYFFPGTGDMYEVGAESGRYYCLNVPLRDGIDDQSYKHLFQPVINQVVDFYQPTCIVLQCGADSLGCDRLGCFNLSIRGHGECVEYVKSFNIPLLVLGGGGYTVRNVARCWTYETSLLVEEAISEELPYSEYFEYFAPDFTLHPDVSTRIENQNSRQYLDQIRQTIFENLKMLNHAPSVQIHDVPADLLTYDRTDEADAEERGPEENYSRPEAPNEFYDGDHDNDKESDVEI
T2 sequence (Q9Y618 whole entry partner): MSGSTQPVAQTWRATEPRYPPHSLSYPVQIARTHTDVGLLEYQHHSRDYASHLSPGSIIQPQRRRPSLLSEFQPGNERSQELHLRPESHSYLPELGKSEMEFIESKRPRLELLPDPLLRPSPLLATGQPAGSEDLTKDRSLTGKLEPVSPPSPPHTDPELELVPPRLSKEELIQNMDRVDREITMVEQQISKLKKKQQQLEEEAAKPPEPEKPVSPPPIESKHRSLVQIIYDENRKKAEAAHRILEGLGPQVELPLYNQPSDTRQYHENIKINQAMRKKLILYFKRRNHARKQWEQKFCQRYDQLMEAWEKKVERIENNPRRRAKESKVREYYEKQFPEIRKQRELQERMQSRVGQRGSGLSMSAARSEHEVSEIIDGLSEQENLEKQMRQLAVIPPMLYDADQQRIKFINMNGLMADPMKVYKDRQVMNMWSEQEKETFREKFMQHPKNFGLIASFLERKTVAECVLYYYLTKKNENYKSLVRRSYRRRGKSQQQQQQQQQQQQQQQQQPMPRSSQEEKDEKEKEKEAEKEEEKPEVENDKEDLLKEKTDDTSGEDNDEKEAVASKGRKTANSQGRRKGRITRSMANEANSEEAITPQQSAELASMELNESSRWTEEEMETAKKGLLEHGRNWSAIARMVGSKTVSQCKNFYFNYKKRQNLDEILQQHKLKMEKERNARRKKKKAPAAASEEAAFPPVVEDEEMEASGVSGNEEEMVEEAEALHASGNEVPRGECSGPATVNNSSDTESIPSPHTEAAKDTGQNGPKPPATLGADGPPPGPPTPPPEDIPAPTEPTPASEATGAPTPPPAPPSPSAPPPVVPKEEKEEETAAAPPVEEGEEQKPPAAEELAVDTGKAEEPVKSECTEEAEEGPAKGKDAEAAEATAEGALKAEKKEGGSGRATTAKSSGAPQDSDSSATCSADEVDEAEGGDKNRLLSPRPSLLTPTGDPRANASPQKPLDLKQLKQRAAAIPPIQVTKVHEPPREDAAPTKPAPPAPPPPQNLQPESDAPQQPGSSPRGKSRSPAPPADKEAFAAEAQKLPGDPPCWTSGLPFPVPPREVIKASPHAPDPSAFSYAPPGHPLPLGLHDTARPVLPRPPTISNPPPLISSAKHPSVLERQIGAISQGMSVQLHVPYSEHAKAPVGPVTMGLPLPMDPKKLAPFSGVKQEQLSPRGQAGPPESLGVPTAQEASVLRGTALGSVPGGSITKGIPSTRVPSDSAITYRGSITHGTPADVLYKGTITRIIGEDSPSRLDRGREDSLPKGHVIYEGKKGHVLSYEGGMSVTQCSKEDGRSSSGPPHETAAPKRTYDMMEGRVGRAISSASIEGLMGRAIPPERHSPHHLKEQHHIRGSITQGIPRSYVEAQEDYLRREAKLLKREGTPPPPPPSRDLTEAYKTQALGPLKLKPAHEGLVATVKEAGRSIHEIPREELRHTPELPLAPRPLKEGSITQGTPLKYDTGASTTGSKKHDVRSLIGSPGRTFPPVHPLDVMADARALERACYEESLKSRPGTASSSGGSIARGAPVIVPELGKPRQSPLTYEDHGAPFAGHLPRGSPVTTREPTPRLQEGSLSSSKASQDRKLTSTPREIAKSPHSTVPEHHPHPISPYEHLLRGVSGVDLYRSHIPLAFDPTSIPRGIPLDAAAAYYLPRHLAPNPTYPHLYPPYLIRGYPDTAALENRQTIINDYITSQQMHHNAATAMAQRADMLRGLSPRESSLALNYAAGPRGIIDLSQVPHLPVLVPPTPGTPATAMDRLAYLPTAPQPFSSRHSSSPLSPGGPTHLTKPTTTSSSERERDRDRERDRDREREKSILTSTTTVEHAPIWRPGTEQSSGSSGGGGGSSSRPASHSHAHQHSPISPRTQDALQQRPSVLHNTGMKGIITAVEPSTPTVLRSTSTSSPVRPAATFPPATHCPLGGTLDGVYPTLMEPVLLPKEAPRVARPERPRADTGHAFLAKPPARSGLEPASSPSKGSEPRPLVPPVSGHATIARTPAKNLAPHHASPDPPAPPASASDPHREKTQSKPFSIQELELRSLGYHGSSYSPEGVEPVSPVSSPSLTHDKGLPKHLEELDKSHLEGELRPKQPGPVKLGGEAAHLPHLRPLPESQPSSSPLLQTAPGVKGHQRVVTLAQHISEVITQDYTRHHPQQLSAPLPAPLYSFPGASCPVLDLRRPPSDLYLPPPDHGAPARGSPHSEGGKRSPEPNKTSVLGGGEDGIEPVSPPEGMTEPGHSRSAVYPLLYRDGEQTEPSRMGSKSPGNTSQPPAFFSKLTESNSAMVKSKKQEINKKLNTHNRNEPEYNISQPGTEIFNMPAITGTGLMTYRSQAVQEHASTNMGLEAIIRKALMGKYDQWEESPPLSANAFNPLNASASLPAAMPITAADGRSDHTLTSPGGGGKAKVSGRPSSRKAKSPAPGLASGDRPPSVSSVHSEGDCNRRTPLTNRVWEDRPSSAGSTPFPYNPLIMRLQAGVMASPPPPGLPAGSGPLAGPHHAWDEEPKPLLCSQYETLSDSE

For the molecule `Cc1[nH]c(/C=C2\C(=O)Nc3ccc(F)cc32)c(C)c1C(=O)NCCCNc1ccc(C(=O)Nc2ccccc2N)cn1` [Example 6, (Z)-N-(2-aminophenyl)-6-(3-(2-((5-fluoro-2-oxoindolin-3-ylidene)methyl)-3,5-dimethyl-1H-pyrrole-4-carboxamido)propylamino)nicotinamide], the values for the EC50 in experiment [1] (24 hours) and in experiment [5] (24 hours) were 2.5 µM and 1 µM, respectively. Besides, the “HDAC7 (Nur77 reporter assay) % Max Resp of CS055 at 3 μM” value (“HDAC7 (Nur77 reporter assay) % Max Resp” below) in experiment [1] turned out to be 88.1%. For the same molecule, the concentration for 50% growth inhibition (GI50) was above 60 µM in experiment [2]; above 1000 nM in experiment [3]; 9 nM in experiment [4]; above 60 µM in experiment [6]; above 60 µM in experiment [7]; above 60 µM in experiment [8]. In [9], this molecule yielded a GI50 above 60 µM. Further, the “HDAC3 (GDF11 reporter assay) % Max Resp of CS055 at 3 μM” value (shortened to “HDAC3 (GDF11 reporter assay) % Max Resp”) in experiment [5] was found to be 75.6%.
`Cc1[nH]c(/C=C2\C(=O)Nc3ccc(F)cc32)c(C)c1C(=O)NCCNc1ccc(C(=O)Nc2ccc(F)cc2N)cn1` [Example 13, (Z)-N-(2-amino-4-fluorophenyl)-6-(2-(2-((5-fluoro-2-oxoindolin-3-ylidene)-methyl)-3,5-dimethyl-1H-pyrrole-4-carboxamido)ethylamino)nicotinamide]: the “HDAC7 (Nur77 reporter assay) % Max Resp” value in experiment [1] is 6.4%. The GI50 is above 60 µM in [2]; above 1000 nM in experiment [3]; 7 nM in experiment [4]; above 60 µM in experiment [6]; above 60 µM in experiment [7]; above 60 µM in [8]. This molecule also had a GI50 in experiment [9] above 60 µM. The “HDAC3 (GDF11 reporter assay) % Max Resp” value in [5] is 1.8%.
On to `Cc1[nH]c(/C=N/N=C2\C(=O)Nc3ccc(F)cc32)c(C)c1C(=O)NCCNc1ccc(C(=O)Nc2ccc(F)cc2N)cn1` [Example 14, N-(2-amino-4-fluorophenyl)-6-(2-(2-(((5-fluoro-2-oxoindolin-3-ylidene)-hydrazono)methyl)-3,5-dimethyl-1H-pyrrole-4-carboxamido)ethylamino)nicotinamide], for which the “HDAC7 (Nur77 reporter assay) % Max Resp” value in [1] was found to be 4.5%. Further, the concentration for 50% growth inhibition (GI50) in experiment [2] is above 60 µM; in [3], above 1000 nM; in experiment [4] it was 201 nM; in experiment [6] it was above 60 µM; in experiment [7] it was above 60 µM; in [8], above 60 µM. In experiment [9], the GI50 is above 60 µM. Further, in experiment [5], the “HDAC3 (GDF11 reporter assay) % Max Resp” value stood at 2.0%.
As for `Cc1[nH]c(/C=C2\C(=O)Nc3ccc(F)cc32)c(C)c1C(=O)NCCCNc1ccc(C(=O)Nc2ccc(F)cc2N)cn1` [Example 16, (Z)-N-(2-amino-4-fluorophenyl)-6-(3-(2-((5-fluoro-2-oxoindolin-3-ylidene)-methyl)-3,5-dimethyl-1H-pyrrole-4-carboxamido)propylamino)nicotinamide], the “HDAC7 (Nur77 reporter assay) % Max Resp” value in [1] is reported as 6.5%. Besides, the GI50 is above 60 µM in experiment [2]; above 1000 nM in experiment [3]; 39 nM in experiment [4]; above 60 µM in experiment [6]; above 60 µM in [7]; above 60 µM in [8]. Also, the GI50 in experiment [9] is above 60 µM. Moreover, the “HDAC3 (GDF11 reporter assay) % Max Resp” value in [5] is 1.8%.

One may read the EC50 as the concentration that produces a half-maximal response. As a reminder, the GI50 is the concentration at which growth is held to half of that of the control. A higher GI50 goes with less potent growth inhibition.
